Test results as given in US10889569B2, “Condensed ring group azacyclobutyl triazole derivative, preparation method therefor and use thereof in medicine” (Jiangsu Hengrui Medicine Co., Ltd., priority 2016, dated 2021).
One block for each compound: values may come before it.

Columns and labels:
[1] = Brain permeability of rats (Kp-unbound); type: in vivo; conditions: both sexes, rat, not told, po; SD rats, 10 mg/kg intragastrically, 0.5 h after administration; read-out: Kp-unbound (blood-brain permeability index)
Description: The activity of the compounds of the present invention on the brain permeability of rats was determined by the following experimental method:
Four SD rats (half male and half female) were maintained in a 12 hours light/12 hours dark cycle, in a constant temperature of 24±3° C. and a humidity of 50-60%, and free access to food and water. The compounds were administered intragastrically to the rats after fasting overnight. The administration dosage was 10 mg/kg. The administration group was sacrificed after blood collection at 0.5 h to 2 h after administration (blood volume: 0.5 ml). The blood sample was stored in heparinized tubes, and centrifuged for 10 minutes at 3500 rpm to separate the plasma, which was marked as plasma 1 and stored at […]. The animal was decapitated after sacrificing, and the brain tissue was collected. The residual blood in the brain tissue was sucked with a filter paper, which was marked as brain tissue 1, and stored at 0° C. ten minutes later. Another three animals were treated by the same method as that of administration group to obtain blank plasma and brain tissue 2.
The drug compounds were diluted to 50 mM with DMSO to obtain a stock solution I. An appropriate amount of stock solution I was diluted with methanol to obtain a diluted stock solution II (200 μM). 10 μl of stock solution II was moved to a 1.5 ml Eppendorf tube, and then added with 990 μl of blank plasma, and mixed well to obtain 2 μM of plasma sample 2 (concentration of DMSO≤0.2%), which was used for the determination of plasma protein binding rate at this concentration. […]
The equilibrium dialysis tube of RED Device Inserts was inserted into a 96-well plate. […] The chromatographic peak area ratios of the total drug (plasma chamber) and the free drug (buffer chamber) to the internal standard were determined directly by the LC/MS/MS method established above respectively, and the free percent (fu plasma %) was calculated.
Brain tissue protein binding equilibrium dialysis process: the blank brain tissue 2 was formulated into a blank brain homogenate with PBS (pH 7.4) according to a dilution factor of 11, and added with compound to formulate a 2 μM brain homogenate. Other procedures were the same with that of plasma protein binding, the chromatographic peak area ratios of the total drug (brain homo chamber) and the free drug (buffer chamber) to the internal standard were determined by the established LC/MS/MS method respectively, and the free percent (fu brain hom %) was calculated.
1) The drug concentrations in plasma 1 and brain tissue 1 of rats 0.5 h after administration were determined by the established LC/MS/MS method respectively, which were the total concentration (Ctotal, p and Ctotal, b); […]

human OTR = human OTR (Homo sapiens, UniProt P30559); test: Inhibition activity on human OTR (Fluo-4 calcium assay, HEK293/human OTR stably transfected cells); type: cell-based; conditions: oxytocin 3 nM
How it was run: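 HEK293 cells stably expressing human OTR, loaded with Fluo-4 for 30 min at 37 °C, were preincubated 10 min at room temperature with compound (stocks 10^1–10^6 nM). Oxytocin (3 nM as added) then triggered calcium signal, read immediately at 494/516; IC50 fitted from fluorescence versus concentration.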

human V2R = human V2R (Homo sapiens (Human), UniProt P30518); test: Inhibition activity on human V2R (cAMP HTRF assay, HEK293/human V2R pool cells); type: cell-based; conditions: vasopressin
Description: The inhibition effect of the compounds of the present invention on the activity of human V2R protein expressed in HEK293/human V2R cells was determined by the following experimental method:
The pcDNA3.1-V2R plasmid was transferred into HEK293 cells with the Lipofectamine® 3000 transfection reagent; G418 was added on the next day, and the HEK293/human V2R pool cell lines were obtained.
HEK293/human V2R pool cells were dissociated with the cell dissociation solution (enzyme-free), thereby dissociating the cells from the cell culture dish into individual cells. Then the cell solution was blown well, and centrifuged to remove the supernatant. The cells were resuspended in the test buffer 1 (1×HBSS+20 mM HEPES+0.1% BSA) and counted. The cell density was adjusted to 1250 cells/5 μl, i.e., 2.5*10^5/ml.
The compounds were formulated into a series of concentrations of 20 mM, 6.67 mM, 2.22 mM, 0.74 mM, 0.25 mM, 0.08 mM, 27.4 μM, 9.14 μM, 3.05 μM, 1.02 μM, 0.34 μM and 0 μM (DMSO) with pure DMSO. The compounds were then diluted into a 4-fold working concentration solution with the test buffer 2 (test buffer 1+1 mM IBMX).
Agonist: 460 μM vasopressin was used as the mother liquor, which was formulated at 2 μM with DMSO, and then diluted to 0.5 nM with the test buffer 2.
Standards: The first point was 20 μl of a stock solution (2848 nM), which was diluted successively to a total of eleven concentrations in a 4-fold concentration gradient with the test buffer 1 from the second point.
1. The well-mixed cells were added to a 384-well plate (5 μl/well) without changing the tip.
2. The test compounds and positive compound formulated were added (2.5 μl/well), and the tips were changed.
3. The plate was centrifuged at 1000 rpm for 1 min, shaken for 30 sec to mix well, and incubated at room temperature for 30 min.
4. The standard curve wells were added with the test buffer 2 (5 μl/well).
5. The formulated agonist was added (2.5 μl/well), and the tips were changed; the plate was centrifuged at 1000 rpm for 1 min, shaken for 30 sec to mix well, and incubated at room temperature for 30 min.
6. cAMP-d2 (a component in the cAMP dynamic 2 kit) and Anti-cAMP-Eu-Cryptate (a component in the cAMP dynamic 2 kit) were formulated in the dark, which were then mixed well with cAMP lysate (a component in the cAMP dynamic 2 kit) in a ratio of 1:4. Each well was added with the formulated cAMP-d2 solution (5 μl/well), followed by addition of Anti-cAMP-Eu-Cryptate (5 μl/well). The plate was shaken for 30 sec to mix well, and incubated in the dark at room temperature for 1 h.
The HTRF Signals were Read by the PheraStar Multi-Function Microplate Reader.
The data in this test was processed using the data processing software Graphpad Prism.
The inhibition activity of the compounds of the present invention on human V2R was determined by the above test, and the IC50 values obtained are shown in Table 4.

human V1aR = human V1aR (Homo sapiens (Human), UniProt P37288); test: Inhibition activity on human V1aR (Fluo-4 calcium assay, HEK293/human V1aR stably transfected cells); type: cell-based; conditions: vasopressin 3 nM
How it was run: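 Stable HEK293/human V1aR cells, 25,000 cells/well, loaded with Fluo-4 for 30 minutes at 37° C. then 10 minutes room temperature; compounds (formulated at 10^1–10^6 nM) added 10 minutes before 3 nM vasopressin. Calcium fluorescence read immediately at 494/516; IC50 from concentration–signal curves.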

human V1bR = human V1bR (Homo sapiens, UniProt P47901); test: Inhibition activity on human V1bR (Fluo-4 calcium assay, HEK293/human V1bR pool cells); type: cell-based; conditions: vasopressin 3 nM
Description: The inhibition effect of the compounds of the present invention on the activity of human V1bR protein expressed in HEK293/human V1bR cells was determined by the following experimental method:
The pcDNA3.1-V1bR plasmid was transferred into HEK293 cells with the Lipofectamine® 3000 transfection reagent; G418 was added on the next day, and the HEK293/human V1bR pool cell lines were obtained.
HEK293/human V1bR pool cells were inoculated in a 96-well plate with an inoculation density of 25,000 cells/well one day in advance. On the next day, a loading buffer containing Fluo-4 dye was formulated using the reagents in the Fluo-4 NW calcium assay kit, and the culture medium was then removed; 100 μl of the loading buffer containing Fluo-4 dye were added to each well, and the plate was incubated at 37° C. for 30 minutes. After that, the plate was moved to room temperature and equilibrated for 10 minutes. The compounds were formulated into 10^6, 10^5, 10^4, 10^3, 10^2 and 10^1 nM. 1 μl of the compounds in each concentration was added to each well, and the plate was incubated at room temperature for 10 minutes. 50 μl of vasopressin polypeptide (3 nM) were automatically added by the machine, and the values were immediately detected at 494/516 nM by the flexstation 3 microplate reader. IC50 values of the compounds were calculated by Graphpad prism software using fluorescence signals corresponding to different concentrations.
The inhibition activity of the compounds of the present invention on human V1bR was determined by the above test, and the obtained IC50 values are shown in Table 3.

[2] = Pharmacokinetics assay in rats after intragastrical administration; type: in vivo, SD rats; conditions: Sprague-Dawley, rat, plasma, po, 30 mg/kg, intragastric, male rats
Description: Male SD rats were used as test animals. The drug concentration in plasma at different time points was determined by LC/MS/MS method after intragastrical administration of the compounds of Examples 2, 17, 34, 37, 38, 39 and 43 to rats. The pharmacokinetic behavior of the compounds of the present invention was studied and evaluated in rats.
Twenty-one healthy adult male Sprague-Dawley (SD) rats were purchased from Shanghai Jiesijie Laboratory Animal Co., LTD, with Certificate No.: SCXK (Shanghai) 2013-0006, and equally divided into 7 groups (3 rats per group).
A certain amount of the test compound was weighed, and added with 2.5% by volume of DMSO and 97.5% by volume of 10% solutol HS-15 to formulate a […] colorless, clear and transparent solution.
After an overnight fast, SD rats were administered intragastrically the test compounds at an administration dosage of 30.0 mg/kg and an administration volume of 10.0 mL/kg.
The rats were intragastrically administered the compounds of Examples 2, 17, 34, 37, 38, 39 and 43. 0.2 mL of blood was taken from the orbital sinus before administration and at 0.5, 1.0, 2.0, 4.0, 6.0, 8.0, 11.0 and 24.0 hours after administration. The samples were stored in heparinized tubes, and centrifuged for 10 minutes at 4° C. at 3500 rpm to separate the plasma. The plasma samples were stored at −20° C. The rats were fed 2 hours after administration.
The content of the test compounds in the plasma of rats after intragastrical administration of the test compounds at different concentrations was determined: 50 μL of rat plasma at each time after administration was taken, added with 50 μL of the internal standard solution of camptothecin (100 ng/mL) and 150 μL of acetonitrile, vortex-mixed for 5 minutes, and centrifuged for 10 minutes (4000 rpm). 3 μL of the supernatant was taken from the plasma samples for LC/MS/MS analysis.

oxytocin receptor [3] = target: T1, oxytocin receptor (Homo sapiens (Human), UniProt P30559); conditions: cited from earlier work
oxytocin receptor [4] = target: oxytocin receptor (Rattus norvegicus (Rat), UniProt P70536); conditions: intraventricular and intrathecal injection; cited from earlier work
oxytocin receptor [5] = target: T1, oxytocin receptor; conditions: orally 400 mg or 800 mg, patient with prospermia, phase II; cited from earlier work

T1 sequence (P30559 whole entry): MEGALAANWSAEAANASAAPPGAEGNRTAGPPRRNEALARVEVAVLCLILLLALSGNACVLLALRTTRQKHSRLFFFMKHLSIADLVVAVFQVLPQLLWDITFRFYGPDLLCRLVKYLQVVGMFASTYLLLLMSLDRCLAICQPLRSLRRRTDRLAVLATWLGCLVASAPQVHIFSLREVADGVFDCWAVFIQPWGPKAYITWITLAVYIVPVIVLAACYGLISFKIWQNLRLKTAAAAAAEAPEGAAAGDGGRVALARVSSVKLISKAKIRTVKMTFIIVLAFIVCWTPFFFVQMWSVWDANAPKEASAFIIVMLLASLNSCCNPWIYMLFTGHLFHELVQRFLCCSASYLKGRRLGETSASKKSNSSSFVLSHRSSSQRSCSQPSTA
Chain of human V1aR (P37288 whole entry): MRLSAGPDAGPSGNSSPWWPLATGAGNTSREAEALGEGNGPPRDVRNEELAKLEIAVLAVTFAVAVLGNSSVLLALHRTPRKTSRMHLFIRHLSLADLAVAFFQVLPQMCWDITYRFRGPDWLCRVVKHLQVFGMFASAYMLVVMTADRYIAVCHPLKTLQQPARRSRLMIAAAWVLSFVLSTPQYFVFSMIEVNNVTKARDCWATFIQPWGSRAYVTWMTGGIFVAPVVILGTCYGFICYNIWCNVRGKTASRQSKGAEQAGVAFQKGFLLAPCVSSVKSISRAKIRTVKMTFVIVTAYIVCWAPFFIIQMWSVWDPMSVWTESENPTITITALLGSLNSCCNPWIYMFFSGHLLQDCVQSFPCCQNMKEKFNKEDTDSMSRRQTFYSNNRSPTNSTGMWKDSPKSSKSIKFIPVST
Chain of human V2R (P30518 whole entry): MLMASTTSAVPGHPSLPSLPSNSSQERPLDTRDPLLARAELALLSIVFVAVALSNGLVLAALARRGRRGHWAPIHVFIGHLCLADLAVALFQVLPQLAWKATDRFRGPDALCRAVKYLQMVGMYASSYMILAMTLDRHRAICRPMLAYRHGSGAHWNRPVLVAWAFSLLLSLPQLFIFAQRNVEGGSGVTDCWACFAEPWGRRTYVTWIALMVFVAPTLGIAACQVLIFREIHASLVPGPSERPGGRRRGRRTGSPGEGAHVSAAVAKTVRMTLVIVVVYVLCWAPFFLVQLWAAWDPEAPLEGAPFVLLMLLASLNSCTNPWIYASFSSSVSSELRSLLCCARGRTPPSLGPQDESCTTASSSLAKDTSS
Chain of oxytocin receptor (Rattus norvegicus (Rat), UniProt P70536) (P70536 whole entry): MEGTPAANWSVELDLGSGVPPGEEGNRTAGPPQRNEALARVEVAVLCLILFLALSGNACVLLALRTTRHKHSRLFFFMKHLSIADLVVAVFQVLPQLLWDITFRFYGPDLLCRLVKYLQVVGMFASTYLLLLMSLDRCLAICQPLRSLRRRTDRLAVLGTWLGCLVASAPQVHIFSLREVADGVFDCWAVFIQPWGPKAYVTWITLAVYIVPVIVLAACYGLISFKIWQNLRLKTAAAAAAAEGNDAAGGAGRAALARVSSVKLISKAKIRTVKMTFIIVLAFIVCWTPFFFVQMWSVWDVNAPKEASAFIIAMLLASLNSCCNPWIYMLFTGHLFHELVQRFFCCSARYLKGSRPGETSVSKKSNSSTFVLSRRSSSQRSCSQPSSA

Kp at 0.5 h [1]: 0.064
SMILES: COCc1nnc(N2CC(Oc3ccc(F)cc3Cl)C2)n1-c1ccc(OC)nc1 [5-(3-(3-(2-Chloro-4-fluorophenoxy)azetidin-1-yl)-5-(methoxymethyl)-4H-1,2,4-triazol-4-yl)-2-methoxypyridine, reference compound]

IC50 (human OTR): 0.079 µM | IC50 (human V2R): 5.8 µM | IC50 (human V1aR): 3.5 µM | IC50 (human V1bR): 54.5 µM
SMILES: CCOCc1nnc(N2CC(N3CCOc4cc(F)ccc43)C2)n1-c1ccc(OC)nc1 [Example 31, 4-(1-(5-(Ethoxymethyl)-4-(6-methoxypyridin-3-yl)-4H-1,2,4-triazol-3-yl)azetidin-3-yl)-7-fluoro-3,4-dihydro-2H-benzo[b][1,4]oxazine]

IC50 (human OTR): 0.002 µM | Kp at 0.5 h [1]: 0.175 | Vd/F ([2]; read-out: Apparent distribution volume Vz/F): 27.8 ± 22.8 L/kg | AUC ([2]; read-out: Area under curve AUC): 5630 ± 3010 ng·h/mL | CL/F ([2]; read-out: Clearance CLz/F): 104 ± 44 mL/min/kg | half-life ([2]; read-out: Half-life T1/2 (converted)): 2.83 ± 1.9 h | Cmax ([2]; read-out: Plasma concentration Cmax): 1060 ± 270 ng/mL | MRT ([2]; read-out: Residence time MRT): 4.19 ± 1.25 h
SMILES: COc1ccc(-n2c(COC(F)F)nnc2N2CC(c3cccc4cc(F)ccc34)C2)cn1 [Example 38, 5-(3-((Difluoromethoxy)methyl)-5-(3-(6-fluoronaphthalen-1-yl)azetidin-1-yl)-4H-1,2,4-triazol-4-yl)-2-methoxypyridine]

SMILES: CC[C@H](C)[C@@H]1C(=O)N[C@H](C2Cc3ccccc3C2)C(=O)N1[C@@H](C(=O)N1CCOCC1)c1ccc(C)nc1C [GSK557296]
Efficacy after oral administration in phase II clinical trials (oxytocin receptor [3]): did not show corresponding efficacy | Ejaculation behavior of rats (oxytocin receptor [4]): can effectively inhibit the ejaculation behavior of rats only when being administered at specific central sites

SMILES: COCc1nnc(N2CC(Oc3ccc(F)cc3Cl)C2)n1-c1ccc(OC)nc1 [IX-01]
Vaginal ejaculation latency (oxytocin receptor [5]): can significantly prolong the vaginal ejaculation latency of the patient
